# Measured values published in patent US8946203B2, “Benzodioxane inhibitors of leukotriene production” (Boehringer Ingelheim International GmbH, priority 2012, dated 2015).
# Columns and labels:
# [1] = system: synthesis of LTB4 in human whole blood; assay: human whole blood (HWB) assay, LTB4 production inhibition after calcimycin stimulation; assay type: cell-based; details: heparinized human whole blood, calcimycin 20 μM, plasma LTB4 by HTRF
# Method: The compounds of the invention are additionally tested in a human whole blood (HWB) assay to determine their ability to inhibit the synthesis of LTB4 in a cellular system. Compounds are combined with heparinized human whole blood and incubated for 15 minutes at 37° C. Calcimycin (20 μM final, prepared in phosphate-buffered saline, pH 7.4) is then added and the mixture is incubated for another 30 minutes at 37° C. The samples are centrifuged for 5 min at low speed (1500×g) and the plasma layer is removed. Plasma LTB4 concentrations are then measured using an antibody-based homogenous time-resolved fluorescence method (CisBio, Bedford, Mass.). In general, the preferred potency range (IC50) of compounds in the HWB assay is between 10 nM to 10 μM, the more preferred potency range is 10 nM to 1 μM, and the most preferred potency range is 10 nM to 100 nM.
# human LTA4 hydrolase = target: T1, human LTA4 hydrolase (Homo sapiens, UniProt P09960); assay: LTA4H Enzyme assay (cleavage of Arg-AMC, fluorescence); assay type: biochemical; details: LTA4H Enzyme 1 nM, Arg-AMC substrate 50 μM, room temperature 1 h, fluorescence; read-out: IC50 values of LTA4H Enzyme assay
# T1 sequence (P09960 1-611): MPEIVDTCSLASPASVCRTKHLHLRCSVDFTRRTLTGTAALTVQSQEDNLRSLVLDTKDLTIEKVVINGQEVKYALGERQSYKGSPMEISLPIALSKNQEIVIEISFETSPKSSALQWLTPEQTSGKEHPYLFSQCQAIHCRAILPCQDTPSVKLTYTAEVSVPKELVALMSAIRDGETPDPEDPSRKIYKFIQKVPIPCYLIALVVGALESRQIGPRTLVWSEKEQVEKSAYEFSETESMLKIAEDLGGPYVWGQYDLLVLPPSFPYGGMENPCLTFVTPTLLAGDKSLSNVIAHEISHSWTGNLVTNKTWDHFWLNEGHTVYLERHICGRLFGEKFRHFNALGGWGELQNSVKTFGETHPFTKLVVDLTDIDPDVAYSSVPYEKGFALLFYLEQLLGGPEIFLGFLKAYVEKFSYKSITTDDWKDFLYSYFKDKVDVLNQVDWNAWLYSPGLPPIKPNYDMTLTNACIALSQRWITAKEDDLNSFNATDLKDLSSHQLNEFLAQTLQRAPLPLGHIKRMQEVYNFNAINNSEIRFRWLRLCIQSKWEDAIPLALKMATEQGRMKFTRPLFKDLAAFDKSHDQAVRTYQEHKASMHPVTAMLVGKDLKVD
# Summary of the method: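 Peptidase activity of human LTA4H (1 nM final) on Arg-AMC (50 μM final), with compound, 1 h at room temperature. Buffer: 50 mM Tris-HCl pH 7.5, 100 mM KCl, 0.5% BSA.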
IC50 [1],IC50 (human LTA4 hydrolase),Compound
170 nM,0.6 nM,"CNC(=O)c1nnc2n1CCN(Cc1ccc([C@H]3COc4cccnc4O3)cc1)C2 [Example 242, 7-[(S)-4-(2,3-dihydro-[1,4]dioxino[2,3-b]pyridin-3-yl)-benzyl]-5,6,7,8-tetrahydro-[1,2,4]triazolo[4,3-a]pyrazine-3-carboxylic acid methylamide]"
110 nM,0.5 nM,"NC(=O)c1nnc2n1CCN(Cc1ccc([C@H]3COc4cccnc4O3)cc1)C2 [Example 241, 7-[(S)-4-(2,3-Dihydro-[1,4]dioxino[2,3-b]pyridin-3-yl)-benzyl]-5,6,7,8-tetrahydro-[1,2,4]triazolo[4,3-a]pyrazine-3-carboxylic acid amide]"
56 nM,0.19 nM,"O=C1OCCCN1C1CCN(Cc2ccc([C@H]3COc4cccnc4O3)cc2)CC1 [Example 291, 3-{1-[(S)-4-(2,3-Dihydro-[1,4]dioxino[2,3-b]pyridin-3-yl)-benzyl]-piperidin-4-yl}-[1,3]oxazinan-2-one]"
24 nM,0.16 nM,"CC(=O)N1C[C@@H]2C[C@H]1CN2Cc1ccc([C@H]2COc3cccnc3O2)cc1 [Example 292, 1-{(1S,4S)-5-[(S)-4-(2,3-Dihydro-[1,4]dioxino[2,3-b]pyridin-3-yl)-benzyl]-2,5-diaza-bicyclo[2.2.1]hept-2-yl}-ethanone]"
100 nM,0.57 nM,"CONC(=O)CC1CCN(Cc2ccc([C@H]3COc4cccnc4O3)cc2)CC1 [Example 260, 2-{1-[(S)-4-(2,3-Dihydro-[1,4]dioxino[2,3-b]pyridin-3-yl)-benzyl]-piperidin-4-yl}-N-methoxy-acetamide]"
65 nM,0.3 nM,"O=C(CO)N1C[C@@H]2C[C@H]1CN2Cc1ccc([C@H]2COc3cccnc3O2)cc1 [Example 277, 1-{(1S,4S)-5-[(S)-4-(2,3-Dihydro-[1,4]dioxino[2,3-b]pyridin-3-yl)-benzyl]-2,5-diaza-bicyclo[2.2.1]hept-2-yl}-2-hydroxy-ethanone]"
270 nM,0.48 nM,"COCC(=O)N1CCCN(Cc2ccc([C@H]3COc4cccnc4O3)cc2)CC1 [Example 257, 1-{4-[(S)-4-(2,3-Dihydro-[1,4]dioxino[2,3-b]pyridin-3-yl)-benzyl]-[1,4]diazepan-1-yl}-2-methoxy-ethanone]"
48 nM,0.2 nM,"O=C(NC1CCN(Cc2ccc([C@H]3COc4cccnc4O3)cc2)CC1)C1CCOCC1 [Example 290, N-[1-[[4-[(3S)-2,3-dihydro-[1,4]dioxino[2,3-b]pyridin-3-yl]phenyl]methyl]-4-piperidyl]tetrahydropyran-4-carboxamide]"
290 nM,3.9 nM,"N#CCN1CCN(Cc2ccc([C@H]3COc4cccnc4O3)cc2)CC1 [Example 284, {4-[(S)-4-(2,3-Dihydro-[1,4]dioxino[2,3-b]pyridin-3-yl)-benzyl]-piperazin-1-yl}-acetonitrile]"

# The next lines start with the compound.
Compound,IC50 [1],IC50 (human LTA4 hydrolase)
"CN(CCc1ccccn1)Cc1ccc([C@H]2COc3cccnc3O2)cc1 [Example 138, N-{4-[(3S)-2,3-dihydro[1,4]dioxino[2,3-b]pyridin-3-yl]benzyl}-N-methyl-2-(pyridin-2-yl)ethanamine]",76 nM,0.18 nM
"O=C1NCCC12CCN(Cc1ccc([C@H]3COc4cccnc4O3)cc1)CC2 [Example 125, 8-[(S)-4-(2,3-Dihydro-[1,4]dioxino[2,3-b]pyridin-3-yl)-benzyl]-2,8-diaza-spiro[4.5]decan-1-one]",39 nM,0.16 nM
"NC(=O)c1cn2c(n1)CN(Cc1ccc([C@H]3COc4cccnc4O3)cc1)CC2 [Example 243, 7-[(S)-4-(2,3-dihydro-[1,4]dioxino[2,3-b]pyridin-3-yl)-benzyl]-5,6,7,8-tetrahydro-imidazo[1,2-a]pyrazine-2-carboxylic acid amide]",99 nM,0.42 nM
"CC1CCN(Cc2ccc([C@H]3COc4cccnc4O3)cc2)CC1 [Example 137, (3S)-3-{4-[(4-methylpiperidin-1-yl)methyl]phenyl}-2,3-dihydro[1,4]dioxino[2,3-b]pyridine]",28 nM,0.26 nM
"c1cnc2c(c1)OC[C@H](c1ccc(CN3CCCCCC3)cc1)O2 [Example 139, (3S)-3-[4-(azepan-1-ylmethyl)phenyl]-2,3-dihydro[1,4]dioxino[2,3-b]pyridine]",13 nM,0.1 nM
"c1cnc2c(c1)OC[C@H](c1ccc(CNC3CCC3)cc1)O2 [Example 173, N-{4-[(3S)-2,3-dihydro[1,4]dioxino[2,3-b]pyridin-3-yl]benzyl}cyclobutanamine]",73 nM,0.73 nM
"NC(=O)NC1CCN(Cc2ccc([C@H]3COc4ccccc4O3)cc2)CC1 [Example 175, 1-(1-{4-[(2S)-2,3-dihydro-1,4-benzodioxin-2-yl]benzyl}piperidin-4-yl)urea]",73 nM,0.22 nM
"NC(=O)NC1CCN(Cc2ccc(C3COc4ccccc4O3)cc2)CC1 (racemic) [Example 53, 1-{1-[4-(2,3-dihydro-1,4-benzodioxin-2-yl)benzyl]piperidin-4-yl}urea]",155 nM,0.42 nM
"CNC(=O)c1cn2c(n1)CN(Cc1ccc([C@H]3COc4cccnc4O3)cc1)CC2 [Example 244, 7-[(S)-4-(2,3-dihydro-[1,4]dioxino[2,3-b]pyridin-3-yl)-benzyl]-5,6,7,8-tetrahydro-imidazo[1,2-a]pyrazine-2-carboxylic acid methylamide]",120 nM,0.26 nM
"CN1CCC2(CCN(Cc3ccc([C@H]4COc5ccccc5O4)cc3)CC2)C1=O [Example 121, 8-{4-[(2S)-2,3-dihydro-1,4-benzodioxin-2-yl]benzyl}-2-methyl-2,8-diazaspiro[4.5]decan-1-one]",159 nM,0.37 nM
"O=C(O)C[C@@H]1CCCN(Cc2ccc([C@H]3COc4ccccc4O3)cc2)C1 [Example 183, [(3S)-1-{4-[(2S)-2,3-dihydro-1,4-benzodioxin-2-yl]benzyl}piperidin-3-yl]acetic acid]",151 nM,0.48 nM
"NC(=O)N1CCN(Cc2ccc([C@H]3COc4cccnc4O3)cc2)CC1 [Example 164, 4-{4-[(3S)-2,3-dihydro[1,4]dioxino[2,3-b]pyridin-3-yl]benzyl}piperazine-1-carboxamide]",100 nM,0.84 nM
"COCC(=O)NC1CCN(Cc2ccc([C@H]3COc4cccnc4O3)cc2)CC1 [Example 252, N-{1-[(S)-4-(2,3-Dihydro-[1,4]dioxino[2,3-b]pyridin-3-yl)-benzyl]-piperidin-4-yl}-2-methoxy-acetamide]",42 nM,0.15 nM
"O=C1OC[C@H]2CN(Cc3ccc([C@H]4COc5cccnc5O4)cc3)CCN12 [Example 285, (R)-7-[(S)-4-(2,3-Dihydro-[1,4]dioxino[2,3-b]pyridin-3-yl)-benzyl]-hexahydro-oxazolo[3,4-a]pyrazin-3-one]",200 nM,1 nM
"O=C(C1CCN(Cc2ccc(C3COc4ccccc4O3)cc2)CC1)N1CCOCC1 (racemic) [Example 37, {1-[4-(2,3-dihydro-1,4-benzodioxin-2-yl)benzyl]piperidin-4-yl}(morpholin-4-yl)methanone]",324 nM,1.05 nM
"C[C@H](O)CNC(=O)[C@H]1[C@@H]2CN(Cc3ccc([C@H]4COc5cccnc5O4)cc3)C[C@@H]21 [Example 247, [(1α,5α,6α)-3-[(S)-4-(2,3-dihydro-[1,4]dioxino[2,3-b]pyridin-3-yl)-benzyl]-3-aza-bicyclo[3.1.0]hexane]-6-carboxylic acid ((S)-2-hydroxy-propyl)-amide]",68 nM,0.17 nM
"C[C@@H](CO)NC(=O)[C@H]1[C@@H]2CN(Cc3ccc([C@H]4COc5cccnc5O4)cc3)C[C@@H]21 [Example 248, [(1α,5α,6α)-3-[(S)-4-(2,3-Dihydro-[1,4]dioxino[2,3-b]pyridin-3-yl)-benzyl]-3-aza-bicyclo[3.1.0]hexane]-6-carboxylic acid ((S)-2-hydroxy-1-methyl-ethyl)-amide]",58 nM,0.17 nM
"c1cnc2c(c1)OC[C@H](c1ccc(CN3CCn4cnnc4C3)cc1)O2 [Example 156, (3S)-3-[4-(5,6-dihydro[1,2,4]triazolo[4,3-a]pyrazin-7(8H)-ylmethyl)phenyl]-2,3-dihydro[1,4]dioxino[2,3-b]pyridine]",159 nM,0.91 nM
